Positions of bridges follow the written chain, without caps; N, C: chain ends. Residues, ends and D or L forms follow the SMILES beside them.
Experiments:
rKv4.2 D281A = biological target: T1, rKv4.2 D281A (Rattus norvegicus, UniProt Q63881, D281A); test: Patch clamp of rKv4.2 mutant D281A; type: cell-based; conditions: mean ± SEM
T1 construct: expressed in transfected cells; host or cells: HEK293T

rKv4.2 D281K = biological target: T2, rKv4.2 D281K (Rattus norvegicus, UniProt Q63881, D281K); test: cell-based; conditions: mean ± SEM
T2 construct: expressed in transfected cells; host or cells: HEK293T
T2 sequence (Q63881 1-630 D281K): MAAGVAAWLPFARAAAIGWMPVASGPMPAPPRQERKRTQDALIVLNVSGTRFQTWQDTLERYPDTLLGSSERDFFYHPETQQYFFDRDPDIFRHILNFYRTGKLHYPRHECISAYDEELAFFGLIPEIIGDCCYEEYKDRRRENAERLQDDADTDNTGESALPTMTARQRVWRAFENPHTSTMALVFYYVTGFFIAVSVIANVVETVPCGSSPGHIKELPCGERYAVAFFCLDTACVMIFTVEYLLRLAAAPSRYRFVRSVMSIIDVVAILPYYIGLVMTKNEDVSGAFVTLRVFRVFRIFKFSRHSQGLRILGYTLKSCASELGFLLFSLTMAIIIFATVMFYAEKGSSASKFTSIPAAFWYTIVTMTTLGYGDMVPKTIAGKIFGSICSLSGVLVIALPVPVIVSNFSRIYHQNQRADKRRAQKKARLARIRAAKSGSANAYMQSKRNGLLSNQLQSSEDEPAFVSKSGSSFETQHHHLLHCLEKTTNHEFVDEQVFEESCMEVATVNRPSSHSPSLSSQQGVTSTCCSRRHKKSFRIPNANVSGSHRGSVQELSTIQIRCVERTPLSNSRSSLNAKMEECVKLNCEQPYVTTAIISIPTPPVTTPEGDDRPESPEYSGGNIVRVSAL

rKv4.2 D281N = biological target: T3, rKv4.2 D281N (Rattus norvegicus, UniProt Q63881, D281N); test: Patch clamp of rKv4.2 mutant D281N; type: cell-based; conditions: mean ± SEM
T3 construct: expressed in transfected cells; host or cells: HEK293T
T3 sequence (Q63881 whole entry D281N): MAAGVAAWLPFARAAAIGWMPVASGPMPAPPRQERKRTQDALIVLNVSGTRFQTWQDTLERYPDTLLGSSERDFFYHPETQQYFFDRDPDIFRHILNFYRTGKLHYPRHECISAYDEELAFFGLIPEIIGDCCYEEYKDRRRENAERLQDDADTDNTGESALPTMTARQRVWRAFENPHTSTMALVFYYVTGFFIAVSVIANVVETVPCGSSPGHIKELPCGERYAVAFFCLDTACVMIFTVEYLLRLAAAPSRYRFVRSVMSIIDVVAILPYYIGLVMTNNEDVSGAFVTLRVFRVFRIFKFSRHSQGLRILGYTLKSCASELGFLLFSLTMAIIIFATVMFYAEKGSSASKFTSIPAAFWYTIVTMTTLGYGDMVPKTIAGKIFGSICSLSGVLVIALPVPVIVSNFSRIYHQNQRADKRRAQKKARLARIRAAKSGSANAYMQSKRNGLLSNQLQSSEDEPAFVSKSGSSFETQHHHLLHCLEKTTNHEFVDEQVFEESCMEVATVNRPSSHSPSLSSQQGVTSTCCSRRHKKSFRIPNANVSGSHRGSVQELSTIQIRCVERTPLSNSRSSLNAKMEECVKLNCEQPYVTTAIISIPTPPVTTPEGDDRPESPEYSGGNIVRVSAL

rKv4.2 E283A = biological target: T4, rKv4.2 E283A (Rattus norvegicus, UniProt Q63881, E283A); test: Patch clamp of rKv4.2 mutant E283A; type: cell-based; conditions: mean ± SEM
T4 construct: expressed in transfected cells; host or cells: HEK293T
T4 sequence (Q63881 whole entry E283A): as the sequence (Q63881 whole entry D281N) above, with N281D, E283A counted along it

rKv4.2 D284A = biological target: T5, rKv4.2 D284A (Rattus norvegicus, UniProt Q63881, D284A); test: Patch clamp of rKv4.2 mutant D284A; type: cell-based; conditions: mean ± SEM
T5 construct: expressed in transfected cells; host or cells: HEK293T
T5 sequence (Q63881 whole entry D284A): as the sequence (Q63881 whole entry D281N) above, with N281D, D284A counted along it

mKv4.1 = biological target: T6, mKv4.1 (Mus musculus, UniProt Q03719); test: Whole-cell patch clamp of mKv4.1 currents; type: cell-based; conditions: mean ± S.E.M., n = 5, SEM
T6 construct: expressed in transfected cells; host or cells: HEK293T
T6 sequence (Q03719 whole entry): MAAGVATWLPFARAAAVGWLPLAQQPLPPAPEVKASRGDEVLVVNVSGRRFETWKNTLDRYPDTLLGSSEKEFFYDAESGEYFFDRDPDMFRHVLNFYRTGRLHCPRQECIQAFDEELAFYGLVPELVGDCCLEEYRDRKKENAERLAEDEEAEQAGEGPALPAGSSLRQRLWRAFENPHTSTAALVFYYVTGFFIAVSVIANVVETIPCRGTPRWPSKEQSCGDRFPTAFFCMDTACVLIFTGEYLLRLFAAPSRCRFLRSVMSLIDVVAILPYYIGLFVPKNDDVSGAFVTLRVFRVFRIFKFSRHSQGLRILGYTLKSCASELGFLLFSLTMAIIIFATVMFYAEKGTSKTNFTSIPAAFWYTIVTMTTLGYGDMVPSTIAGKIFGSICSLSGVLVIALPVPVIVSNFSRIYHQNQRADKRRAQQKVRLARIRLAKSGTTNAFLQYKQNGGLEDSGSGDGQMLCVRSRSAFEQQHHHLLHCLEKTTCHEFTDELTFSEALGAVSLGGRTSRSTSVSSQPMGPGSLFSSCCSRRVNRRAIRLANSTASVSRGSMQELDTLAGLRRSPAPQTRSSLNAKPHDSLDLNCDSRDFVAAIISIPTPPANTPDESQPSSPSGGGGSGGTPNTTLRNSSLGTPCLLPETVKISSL

rKv2.1 = biological target: T7, rKv2.1 (Rattus norvegicus, UniProt P15387); test: Whole-cell patch clamp of rKv2.1 currents; type: cell-based; conditions: mean ± S.E.M., n = 6, SEM
T7 construct: expressed in transfected cells; host or cells: HEK293T
T7 sequence (P15387 whole entry): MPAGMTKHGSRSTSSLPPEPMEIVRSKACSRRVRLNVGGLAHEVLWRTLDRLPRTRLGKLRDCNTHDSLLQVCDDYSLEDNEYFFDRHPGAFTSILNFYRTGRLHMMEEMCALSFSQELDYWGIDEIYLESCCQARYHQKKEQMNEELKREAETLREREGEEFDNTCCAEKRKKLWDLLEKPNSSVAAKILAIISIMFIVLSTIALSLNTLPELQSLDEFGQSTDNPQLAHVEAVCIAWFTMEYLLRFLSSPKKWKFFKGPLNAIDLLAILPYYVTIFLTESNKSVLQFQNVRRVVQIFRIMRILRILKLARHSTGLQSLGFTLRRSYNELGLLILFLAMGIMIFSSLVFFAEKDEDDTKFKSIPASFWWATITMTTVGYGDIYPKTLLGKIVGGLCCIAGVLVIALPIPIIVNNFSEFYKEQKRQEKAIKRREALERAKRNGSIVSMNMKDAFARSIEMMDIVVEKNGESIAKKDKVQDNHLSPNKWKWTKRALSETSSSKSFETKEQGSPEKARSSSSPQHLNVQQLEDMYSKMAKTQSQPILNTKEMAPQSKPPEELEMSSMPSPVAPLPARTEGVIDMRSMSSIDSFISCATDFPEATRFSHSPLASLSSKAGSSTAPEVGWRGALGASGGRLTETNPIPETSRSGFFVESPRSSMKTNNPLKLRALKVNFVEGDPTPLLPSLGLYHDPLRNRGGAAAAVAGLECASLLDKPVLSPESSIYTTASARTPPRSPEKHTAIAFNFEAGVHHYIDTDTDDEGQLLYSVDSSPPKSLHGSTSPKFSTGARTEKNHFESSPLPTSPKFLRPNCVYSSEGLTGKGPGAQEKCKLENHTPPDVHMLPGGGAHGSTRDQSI

hERG = hERG (Homo sapiens, UniProt Q12809); test: in vitro; conditions: pH 7.4, SEM
hERG, sequence (Q12809 whole entry): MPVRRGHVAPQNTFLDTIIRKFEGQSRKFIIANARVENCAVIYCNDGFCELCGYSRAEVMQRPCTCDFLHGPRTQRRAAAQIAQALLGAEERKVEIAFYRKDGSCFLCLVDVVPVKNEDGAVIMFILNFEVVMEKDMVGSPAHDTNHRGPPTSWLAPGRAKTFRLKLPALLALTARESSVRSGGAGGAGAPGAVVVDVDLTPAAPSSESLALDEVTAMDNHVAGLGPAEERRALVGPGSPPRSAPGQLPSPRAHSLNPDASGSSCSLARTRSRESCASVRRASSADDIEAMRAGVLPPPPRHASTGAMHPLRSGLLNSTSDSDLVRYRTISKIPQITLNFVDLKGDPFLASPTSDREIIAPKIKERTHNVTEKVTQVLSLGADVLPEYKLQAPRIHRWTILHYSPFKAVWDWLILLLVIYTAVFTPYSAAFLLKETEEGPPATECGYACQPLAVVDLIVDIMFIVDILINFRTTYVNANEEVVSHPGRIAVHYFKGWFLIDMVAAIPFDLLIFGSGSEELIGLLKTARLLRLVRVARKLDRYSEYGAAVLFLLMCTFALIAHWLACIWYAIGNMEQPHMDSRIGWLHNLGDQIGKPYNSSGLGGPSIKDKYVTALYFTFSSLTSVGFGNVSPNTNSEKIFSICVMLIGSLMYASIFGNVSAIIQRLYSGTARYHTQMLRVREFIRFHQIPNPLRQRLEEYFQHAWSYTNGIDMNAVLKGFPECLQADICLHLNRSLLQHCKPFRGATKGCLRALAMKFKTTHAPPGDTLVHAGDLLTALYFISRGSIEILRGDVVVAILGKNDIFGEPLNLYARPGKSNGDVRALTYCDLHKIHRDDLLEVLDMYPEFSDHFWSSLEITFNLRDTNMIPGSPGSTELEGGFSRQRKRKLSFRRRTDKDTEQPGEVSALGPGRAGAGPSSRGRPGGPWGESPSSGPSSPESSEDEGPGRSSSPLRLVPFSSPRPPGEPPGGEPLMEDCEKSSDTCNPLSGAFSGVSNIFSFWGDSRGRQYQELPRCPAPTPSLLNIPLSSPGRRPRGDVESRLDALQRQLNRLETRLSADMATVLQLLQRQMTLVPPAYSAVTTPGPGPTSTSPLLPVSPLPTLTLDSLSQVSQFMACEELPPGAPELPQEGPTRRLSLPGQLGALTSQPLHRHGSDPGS

T1 sequence (Q63881 whole entry D281A): as the sequence (Q63881 whole entry D281N) above, with N281A counted along it

Compound: CC(C)C[C@H](NC(=O)[C@H](Cc1ccc(O)cc1)NC(=O)[C@@H](NC(=O)[C@H](CCCCN)NC(=O)[C@@H]1CSSC[C@@H]2NC(=O)[C@H](CCC(=O)O)NC(=O)[C@H](CC(N)=O)NC(=O)[C@H](CCCCN)NC(=O)CNC(=O)[C@@H]3CCCN3C(=O)[C@H]([C@@H](C)O)NC(=O)[C@@H]3CSSC[C@H](NC(=O)[C@H](C)NC(=O)[C@H](Cc4ccc(O)cc4)NC(=O)[C@H](CC(N)=O)NC(=O)[C@@H]4CCCN4C(=O)[C@H](CSSC[C@H](NC(=O)CN)C(=O)N[C@@H](CCCCN)C(=O)NCC(=O)N[C@@H](Cc4ccccc4)C(=O)NCC(=O)N[C@@H](CC(=O)O)C(=O)N[C@@H](CO)C(=O)N3)NC2=O)C(=O)N[C@@H](CO)C(=O)N[C@@H](CO)C(=O)N[C@@H](CCCCN)C(=O)N[C@@H](Cc2c[nH]cn2)C(=O)N[C@@H](CCCCN)C(=O)N[C@@H](Cc2c[nH]c3ccccc23)C(=O)N1)C(C)C)C(N)=O [HNTX-III] (H-GCKGFGDSCTPGKNECCPNYACSSKHKWCKVYL-NH2; disulfide 2-17, 9-22, 16-29)
- IC50 (rKv4.2 D281A): 0.214 ± 0.076 µM
- IC50 (rKv4.2 D281K): 5 ± 1 µM
- IC50 (rKv4.2 D281N): 0.131 ± 0.032 µM
- IC50 (rKv4.2 E283A): 0.987 ± 0.303 µM
- IC50 (rKv4.2 D284A): 0.491 ± 0.072 µM

Compound: CSCC[C@@H]1NC(=O)CNC(=O)[C@H](CCC(=O)O)NC(=O)[C@@H]2CSSC[C@H](NC(=O)[C@@H](N)Cc3ccc(O)cc3)C(=O)N[C@@H](CCC(N)=O)C(=O)N[C@@H](CCCCN)C(=O)N[C@@H](Cc3c[nH]c4ccccc34)C(=O)N[C@@H](CCSC)C(=O)N[C@@H](Cc3c[nH]c4ccccc34)C(=O)N[C@@H]([C@@H](C)O)C(=O)N[C@H]3CSSC[C@H](NC(=O)[C@H](C(C)C)NC1=O)C(=O)N[C@@H](CCCNC(=N)N)C(=O)N[C@@H](CC(C)C)C(=O)N[C@@H](Cc1c[nH]c4ccccc14)C(=O)N[C@H](C(=O)N[C@@H](CCCCN)C(=O)N[C@@H](CCCCN)C(=O)N[C@@H](CCCCN)C(=O)N[C@@H](CC(C)C)C(=O)N[C@@H](Cc1c[nH]c4ccccc14)C(=O)O)CSSC[C@H](NC(=O)[C@H](CCCCN)NC(=O)[C@H](CCCNC(=N)N)NC(=O)[C@H](CCC(=O)O)NC(=O)[C@H](CO)NC(=O)[C@H](CC(=O)O)NC3=O)C(=O)N2 [ProTx-II]
- IC50 (mKv4.1): 0.0381 ± 0.0053 µM
- IC50 (rKv2.1): 0.0787 ± 0.009 µM
- IC50 (rKv4.2 D281K): 0.027 ± 0.002 µM
- IC50 (hERG): 0.0297 ± 0.0028 µM
